Source: the supplement of paper PMC10307832

Tests used:
Assay in all cases: relative viability (nuclei count vs DMSO), 5 days (fraction); higher = more cells survive
Ibrutinib + Olaparib = compound: C=CC(=O)N1CCC[C@@H](n2nc(-c3ccc(Oc4ccccc4)cc3)c3c(N)ncnc32)C1 [Ibrutinib] + O=C(c1cc(Cc2n[nH]c(=O)c3ccccc23)ccc1F)N1CCN(C(=O)C2CC2)CC1 [Olaparib] (partner 8 µM)
In short: (§1)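 Relative viability was taken as the ratio of nuclei in treated wells to nuclei in vehicle wells. Lung cancer cell lines in 1536-well plates received compounds by pin tool one day after seeding, either one drug alone or a fixed anchor-drug dose plus five library-drug doses (not always all listed) in √10 steps. Nuclei were counted on 4× images after 5 days of treatment, and values are medians of duplicate plates.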

BMX-IN-1 + Dasatinib = compound: C=CC(=O)Nc1cc(-n2c(=O)ccc3cnc4ccc(-c5ccc(NS(C)(=O)=O)cc5)cc4c32)ccc1C [BMX-IN-1] + Cc1nc(Nc2ncc(C(=O)Nc3c(C)cccc3Cl)s2)cc(N2CCN(CCO)CC2)n1 [Dasatinib] (partner 0.075 µM)
In short: as §1

PAC-1 + Navitoclax = compound: C=CCc1cccc(/C=N/NC(=O)CN2CCN(Cc3ccccc3)CC2)c1O [PAC-1] + CC1(C)CCC(c2ccc(Cl)cc2)=C(CN2CCN(c3ccc(C(=O)NS(=O)(=O)c4ccc(N[C@H](CCN5CCOCC5)CSc5ccccc5)c(S(=O)(=O)C(F)(F)F)c4)cc3)CC2)C1 [Navitoclax] (partner 0.5 µM)
In short: as §1

PAC-1 + AZD7762 = compound: C=CCc1cccc(/C=N/NC(=O)CN2CCN(Cc3ccccc3)CC2)c1O [PAC-1] + NC(=O)Nc1cc(-c2cccc(F)c2)sc1C(=O)N[C@H]1CCCNC1 [AZD7762] (partner 0.2 µM)
In short: as §1

Cell Line	relative viability (Ibrutinib + Olaparib; first compound 0.005 µM)	relative viability (Ibrutinib + Olaparib; first compound 0.01581 µM)	relative viability (Ibrutinib + Olaparib; first compound 0.05 µM)	relative viability (Ibrutinib + Olaparib; first compound 0.1581 µM)	relative viability (Ibrutinib + Olaparib; first compound 0.5 µM)	relative viability (BMX-IN-1 + Dasatinib; first compound 0.02 µM)	relative viability (BMX-IN-1 + Dasatinib; first compound 0.2 µM)	relative viability (BMX-IN-1 + Dasatinib; first compound 0.6325 µM)	relative viability (BMX-IN-1 + Dasatinib; first compound 2 µM)	relative viability (PAC-1 + Navitoclax; first compound 0.02 µM)	relative viability (PAC-1 + Navitoclax; first compound 0.06325 µM)	relative viability (PAC-1 + Navitoclax; first compound 0.2 µM)	relative viability (PAC-1 + Navitoclax; first compound 2 µM)	relative viability (PAC-1 + AZD7762; first compound 0.02 µM)	relative viability (PAC-1 + AZD7762; first compound 0.06325 µM)	relative viability (PAC-1 + AZD7762; first compound 0.2 µM)	relative viability (PAC-1 + AZD7762; first compound 2 µM)
NCI-H2170	0.568	0.502	0.433	0.607	0.156	0.609	0.634	0.67	0.586	0.637	0.622	0.569	0.461	0.874	0.856	0.928	0.846
A-427	0.71	0.722	0.723	–	0.766	0.731	1.01	0.782	0.664	1	0.92	0.908	0.907	0.774	0.734	0.713	0.702
LC-2-ad	0.802	0.719	0.859	0.741	0.739	0.658	0.737	0.74	0.642	0.464	0.427	0.35	0.331	0.76	0.868	0.859	0.902
NCI-H727	0.736	0.817	0.659	0.792	0.688	0.438	0.339	0.479	0.444	0.425	0.452	0.352	0.42	0.547	0.615	0.671	0.711
NCI-H3122	0.774	0.6	0.582	0.644	0.695	1.03	0.936	0.837	0.84	0.975	1.02	1.01	0.993	0.896	0.906	0.93	0.988
NCI-H322M	0.766	0.768	0.775	0.725	0.659	0.261	0.251	0.262	0.256	1.23	1.27	1.28	1.23	0.573	0.618	0.706	0.584
NCI-H441	0.794	0.728	0.652	0.768	0.567	0.741	0.79	0.709	0.707	0.435	0.645	0.587	0.56	0.994	1.15	1.19	1.1
NCI-H2347	0.659	0.512	0.626	0.619	0.536	0.344	0.281	0.287	0.323	0.817	0.871	0.698	0.865	0.825	0.756	0.675	0.902
HCC-827	0.699	0.667	0.568	0.681	0.216	0.296	0.277	0.371	0.276	1.04	0.986	0.983	0.989	0.239	0.191	0.235	0.237
LOU-NH91	0.836	0.751	0.798	0.931	0.692	0.553	–	0.657	0.559	0.651	0.718	0.672	0.673	0.742	0.761	0.768	0.71
NCI-H1651	0.193	0.183	0.173	0.176	0.185	0.213	0.515	0.435	0.406	0.924	1.12	1.06	1.09	0.44	0.358	0.447	0.467
NCI-H1792	–	0.506	0.402	0.353	0.379	–	0.817	0.714	0.862	0.613	0.563	0.621	0.681	0.673	0.672	0.562	0.679
PC-3 [JPC-3]	1.21	0.996	0.93	1.29	0.523	1	1.19	1.07	0.943	0.894	0.817	0.708	0.844	0.848	0.985	0.883	0.877
NCI-H596	1.09	0.635	0.68	0.668	0.723	0.66	0.618	0.674	0.672	0.887	0.932	0.951	0.951	1.11	1.2	1.09	1.13
NCI-H838	0.794	0.693	0.849	0.866	0.825	0.28	0.323	0.347	0.282	1.08	1.12	1.08	1.21	0.972	0.964	0.936	0.925
NCI-H647	0.638	0.387	0.62	0.57	0.637	0.197	0.24	0.277	0.174	1.23	1.09	1.16	1.2	0.44	0.589	0.502	0.467
HCC-366	0.401	0.33	0.357	0.403	0.381	0.907	0.741	0.618	0.71	1.13	1.01	1.1	1.09	0.265	0.309	0.251	0.312
